Results on two compounds are retold here after US8394356B2, “Diagnostic imaging contrast agents with extended blood retention” (Lantheus Medical Imaging, Inc., priority 1995, dated 2013).

One may read the fraction unbound as free concentration divided by total concentration. A high value points to much free substance.

Marks after values point to notes of the source that are not given here.

Data set [1] has as its target T1, HSA (Homo sapiens, UniProt P02768). Put plainly: HSA binding by equilibrium dialysis or ultrafiltration, 4.5% weight/volume HSA, pH 7.4 buffer.
From the text: (§1) In this application, the measurement of percent binding of the contrast agent to HSA has an error of approximately ±5%.
A short description of data set [2]: Rat plasma pharmacokinetic experiment (Gd153 radiolabeled complexes, tail vein injection).
Method: In this application, blood half-life data, as measured by AUC-conc., represents experimentation in rats.
(§2) Rats were injected intravenously (tail vein) with 0.1 mmol/kg of the Gd^153 radiolabeled complexes. Plasma concentrations were determined over 30 minutes and fit to a standard bi-exponential two-compartment model. […] In addition, the 1/T1s of the plasma samples were recorded (at 20 MHZ, 37° C.) to assess the efficacy as MRI agents.
The nature of data set [3]: 1/T1 of rat plasma samples after intravenous injection (efficacy as MRI agents). The format is in vivo. Particulars: rats, 0.1 mmol/kg i.v., plasma 1/T1 at 20 MHZ, 37° C., first 10 minutes.
Method: as §2
Data set [4] concerns the target T1, HSA.
From the text: as §1

T1 sequence (P02768 25-609): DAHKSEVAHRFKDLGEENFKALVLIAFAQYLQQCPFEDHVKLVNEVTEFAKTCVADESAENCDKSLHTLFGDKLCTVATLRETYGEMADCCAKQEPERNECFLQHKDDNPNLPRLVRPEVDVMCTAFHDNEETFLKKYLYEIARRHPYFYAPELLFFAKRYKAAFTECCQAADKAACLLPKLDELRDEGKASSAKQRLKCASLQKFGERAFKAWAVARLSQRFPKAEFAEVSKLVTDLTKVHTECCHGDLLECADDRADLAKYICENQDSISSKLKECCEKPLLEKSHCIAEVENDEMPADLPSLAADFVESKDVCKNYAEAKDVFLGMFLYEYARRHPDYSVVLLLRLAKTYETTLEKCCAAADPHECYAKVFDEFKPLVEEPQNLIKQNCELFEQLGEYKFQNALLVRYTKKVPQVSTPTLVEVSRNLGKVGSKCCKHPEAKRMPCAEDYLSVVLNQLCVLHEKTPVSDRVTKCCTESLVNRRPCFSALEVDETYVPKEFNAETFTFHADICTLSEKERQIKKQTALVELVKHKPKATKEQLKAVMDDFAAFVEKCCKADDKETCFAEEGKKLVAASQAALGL

Take `O=C(O)CN(CCN(CC(=O)O)CC(COP(=O)(O)OCCCCCCCCCCc1ccccc1)N(CC(=O)O)CC(=O)O)CC(=O)O` (stereo not drawn): the fraction unbound on HSA [1] (human, 4.5% weight/volume human serum albumin (HSA) solution) was < 0.05. Moreover, the “AUC-conc. (for 0 to 10 minutes) greater than that of analogue” value in data set [2] (0 to 10 minutes, versus analogue drawing 27) is recorded as ≥ 100%.
Compound `O=C([O-])CN(CCN(CC(=O)[O-])CC(=O)O)CCN(CC(=O)[O-])CC(=O)O.[Gd+3]` [DTPA, gadolinium diethylenetriamine-pentaacetic acid] yielded an AUC-1/T1 in data set [3] of 27 s^−1 * min. Further, on HSA [4], the “binding to HSA (in words)” value is recorded as “little or no binding to HSA”. Further, the “% bound to HSA” value on HSA [1] (4.5% HSA, error approx ±5%) is 0%. Further, in data set [2] (elimination half-life, rats, 0.1 mmol/kg i.v. tail vein, plasma over 30 min, bi-exponential two-compartment model), the t1/2 was 15.0 min. The compound also gave a blood half-life in data set [2] (rats) of 15 min. The AUC-conc in data set [2] (rats, 0.1 mmol/kg i.v., first 10 minutes, error approx ±10%) came to 3.5 mM·min. The “AUC-conc. from 0 to 10 minutes” value in data set [2] (two rats, 0.1 mmol/kg tail vein, Gd153-labeled, calculated with KaleidaGraph) was 3.5 mM·min.
